# Tested on: rabbits suffering fracture
# Assay: Fibula fracture model: strength test (bending test)
# Assay type: in vivo, Japanese white house rabbits
# Settings: 100 µg/kg oral, average value ± standard deviation
# Description: The right fibulae of mature house rabbits (Japanese white house rabbits having a weight of about 3 kg) were broken at the central portions under anesthetic with a dental hand drill. Each of the house rabbits was kept in a separate cage and was allowed to take an ordinary solid food (CR-1, produced by Nippon Clare Corp.) and city water freely. 24R,25-(OH)₂-D₃ and 24S,25-(OH)₂-D₃ were dispersed in an aqueous 0.5% CMC solution and orally administered to the house rabbits through a rubber catheter. The experimental groups were as follows:
# The respective medicines or aqueous 0.5% CMC solution was administered to these house rabbits for 3 weeks or 6 weeks after the bones had been broken. Thereafter, the house rabbits were killed and the fibulae were taken out for X-ray inspection and a strength test (bending test by DDV-VMF produced by Toyo Baldwin Co., Ltd.).
structure (smiles),measurement,setting,value
"C=C1CC[C@H](O)C/C1=C/C=C1\CCC[C@]2(C)[C@@H]([C@H](C)CC[C@H](O)C(C)(C)O)CC[C@@H]12 [24S,25-(OH)₂-D₃]",Bending strength,3 weeks after,15 N/mm
same,Bending strength,6 weeks after,81 ± 37 N/mm
